Test in all cases: NCI anticancer screen, dose series, 48 h
The test system of assay [1] is RXF 393 renal.
For assay [2], the system named is SF-295 CNS.
Assay [3] relates to HT29 colon.
Assay [4] deals with MDA-N.
Assay [5] deals with CAKI-1 renal.
Assay [6] has as its system SK-MEL-28 melanoma.
The subject of assay [7] is A498 renal.
Assay [8] concerns MCF7 breast.
Assay [9] relates to SN12C renal.
The test system of assay [10] is HOP-92 NSCLC.

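Test compounds were applied to cells in 96-well plates for 48 hours at 5 doses. Definition used: TGI = concentration required for complete inhibition of growth.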

Regarding `CN(C)C(=O)C1CCN(Cc2c[nH]c3ccccc23)CC1`, the TGI in [1], in [2], in assay [3], in assay [4], in assay [5] and in [6] was > 100 µM throughout. Moreover, the TGI in assay [7], in assay [8], in assay [9] and in [10] was > 100 µM throughout.
Turning to `O=C1C(Cl)=C(N2CCN(c3ccccn3)CC2)C(=O)c2ncccc21`, the TGI in assay [1] was 3.7 µM; in assay [2] it was 18.8 µM; in [3] it was 9.93 µM; in assay [4], 3.51 µM; in assay [5], 4.01 µM; in assay [6] it was 4.38 µM. Also, the TGI was found to be 23.8 µM in assay [7], 3.21 µM in [8], 7 µM in [9] and 3.29 µM in [10].
`Nc1c(N2CCCCC2)c(=O)nc2[nH]/c(=C\c3ccccc3)c(=O)n12`: the TGI in assay [1], in assay [2], in assay [3], in assay [4], in assay [5] and in assay [6] was > 100 µM throughout. Also, the TGI in assay [7], in [8], in [9] and in assay [10] was > 100 µM each time.
Turning to `CCC(=O)NCCc1c2c3c(ccnc3c3ncsc13)-c1ccccc1N2`, the TGI in [1], in assay [2], in assay [3], in [4], in assay [5] and in assay [6] was > 100 µM throughout. Besides, the TGI in [7], in assay [8], in assay [9] and in assay [10] was > 100 µM in each case.
With `CC(Oc1ccccc1Cl)C(=O)NN1C(=O)CSC1c1ccc(Cl)cc1` (stereo not given), the TGI is 33.4 µM in assay [1]; 37.8 µM in [2]; 39.5 µM in assay [3]; 29.8 µM in [4]; 56.4 µM in [5]; 49.2 µM in assay [6]. In addition, the TGI in assay [7] came out at 34.8 µM; in assay [8], 35.7 µM; in [9], 28 µM; in assay [10], 40.7 µM.
In the case of `Nc1ccccc1N=Nc1c(S(=O)(=O)O)cc2cc(S(=O)(=O)O)cc(O)c2c1O`, the TGI in assay [1], in assay [2], in assay [3], in assay [4], in assay [5] and in assay [6] was > 100 µM each time. Besides, the TGI in assay [7], in assay [8], in assay [9] and in assay [10] was > 100 µM each time.
As for `COC(=O)[C@@H]1Cc2cc(O)c(O)cc2C2(CCN(C)CC2)O1`, the TGI in assay [1], in assay [2], in [3], in assay [4], in assay [5] and in [6] was > 10 µM in each case. In addition, the TGI in assay [7], in assay [8], in assay [9] and in assay [10] was > 10 µM each time.
For `O=c1[nH]c(=O)n(C/C=C/CBr)nc1Br`, the TGI came to 25.4 µM in assay [1]; 31.1 µM in [2]; 26.1 µM in [3]; 27.5 µM in assay [4]; 24.9 µM in assay [5]; 28.2 µM in assay [6]. Moreover, the TGI in assay [7] was found to be 26.3 µM; in assay [8] it was 22.2 µM; in [9], 28.1 µM; in assay [10], 26.5 µM.
For `COc1ncnc2c1cnn2Cc1cn(CCCCO)nn1`, the TGI in [1], in assay [2], in [3], in [4], in assay [5] and in assay [6] was > 100 µM in each case. Moreover, the TGI in assay [7], in assay [8], in assay [9] and in assay [10] was > 100 µM throughout.
For `COc1ccc(Nc2nc3ccccc3nc2C(=O)O)cc1OC`, the TGI in assay [1], in [2], in assay [3], in assay [4], in assay [5] and in assay [6] was > 100 µM each time. Also, the TGI in assay [7] is 75.1 µM; in assay [8], > 100 µM; in assay [9], > 100 µM; in assay [10], > 100 µM.
Regarding `Oc1cc(CN2COc3ccccc32)c(O)cc1CNC1CCCCC1`, the TGI is 71.8 µM in assay [1]; > 100 µM in [2]; 52.3 µM in assay [3]; 32.2 µM in assay [4]; 67.5 µM in [5]; 45 µM in [6]. For the same compound, the TGI was 49.9 µM in assay [7], 42.7 µM in assay [8], > 100 µM in [9] and 75.4 µM in assay [10].
For the compound `CC1=CC(C)(C)Nc2ccc(CSc3ccccc3)cc21`, the TGI in [1] was 38.3 µM; in assay [2], 48.2 µM; in assay [3], 38.2 µM; in assay [4] it was 69.9 µM; in assay [5] it was > 100 µM; in assay [6] it was > 100 µM. The TGI is 74.4 µM in assay [7], 60.9 µM in assay [8], 62.1 µM in assay [9] and > 100 µM in assay [10].
In the case of `O=C(CN(c1ccc(S(=O)(=O)O)cc1)c1ccc(S(=O)(=O)O)cc1)Nn1cnc2ccc(S(=O)(=O)N(c3ccc(S(=O)(=O)O)cc3)c3ccc(S(=O)(=O)O)cc3)cc2c1=O`, the TGI in assay [1], in assay [2], in [3], in assay [4], in assay [5] and in assay [6] was > 100 µM in each case. The TGI in [7], in [8], in [9] and in assay [10] was > 100 µM each time.
For the compound `BrCC(Br)(c1ccccc1)c1ccccc1-c1cc(-c2ccccc2)cc(-c2ccccc2)n1` (stereo not given), the TGI was found to be 5.92 µM in assay [1]; 8.92 µM in [2]; 6.65 µM in [3]; 10.9 µM in assay [4]; 23.4 µM in [5]; 25.3 µM in [6]. Also, the TGI in [7] came to 15.6 µM; in assay [8], 4.12 µM; in [9] it was 28 µM; in assay [10], 11.4 µM.
As to `CC(C)(C)NC(=O)C12C3C4C1C1C2C3C41C(=O)NC(C)(C)C` (stereo not given), the TGI in [1], in [2], in assay [3], in assay [4], in assay [5] and in [6] was > 100 µM each time. Further, the TGI in assay [7] was > 100 µM; in [8] it was > 100 µM; in assay [9], > 100 µM; in [10] it was 71.6 µM.
Consider `c1ccc(C2=Nc3cccc4cccc(c34)N2)cc1`, for which the TGI is 45.6 µM in [1]; > 100 µM in [2]; > 100 µM in [3]; > 100 µM in assay [4]; > 94.6 µM in assay [5]; > 100 µM in assay [6]. The TGI in [7] was > 100 µM; in assay [8], > 69.4 µM; in [9] it was > 100 µM; in assay [10], 52.7 µM.
Turning to `O=C1CN(c2ccc(Cl)cc2)C(=O)CN1NCNN1CC(=O)N(c2ccc(Cl)cc2)CC1=O`, the TGI in [1], in assay [2], in assay [3], in assay [4], in assay [5] and in assay [6] was > 100 µM in each case. Besides, the TGI in assay [7], in assay [8], in assay [9] and in [10] was > 100 µM throughout.
As for `COc1cccc2cc(C(=O)Nc3ccccn3)c(=N)oc12`, the TGI in assay [1], in assay [2], in assay [3], in [4], in assay [5] and in [6] was > 100 µM each time. Moreover, the TGI in assay [7], in [8], in assay [9] and in assay [10] was > 100 µM in each case.
On to `COc1ccc2c(c1)C(N)=C(Cc1ccncc1)C2=O`, for which the TGI in assay [1], in assay [2], in [3], in assay [4], in assay [5] and in assay [6] was > 100 µM throughout. The TGI in [7], in assay [8], in assay [9] and in [10] was > 100 µM throughout.
As for `CC[C@@H](/C=C\CCC1(C[C@@H](N)CCC=C(C)C)OCCO1)O[Si](C(C)C)(C(C)C)C(C)C`, the TGI in assay [1] is 37.3 µM; in assay [2], 37.4 µM; in assay [3], 32 µM; in [4] it was 30.7 µM; in assay [5], 35.4 µM; in [6], 38.4 µM. In addition, the TGI is 32.4 µM in [7], 30.2 µM in assay [8], 31.6 µM in [9] and 28.7 µM in assay [10].
Regarding `C[C@]12CC/C(=N\OCCN3CCCCC3)C=C1CCC1C2CC[C@@]2(C)C1CC[C@]2(C)O` (stereo not given in full), the TGI in assay [1] is 56.5 µM; in assay [2], 14.3 µM; in assay [3], 10.2 µM; in assay [4], 11.7 µM; in [5] it was 23.7 µM; in assay [6], 30.4 µM. For the same compound, the TGI in assay [7] was determined as 15.4 µM; in [8], 71.7 µM; in assay [9] it was 33.5 µM; in [10], 26 µM.
`Cc1cc(C)n(CN(Cn2nc(C)cc2C)c2ccccc2)n1`: the TGI in [1] is 38.9 µM; in [2] it was > 100 µM; in [3] it was 35.6 µM; in assay [4], 27.6 µM; in [5] it was > 100 µM; in assay [6] it was 34.7 µM. Also, the TGI in [7] was > 100 µM; in assay [8] it was 68.1 µM; in assay [9], 98.7 µM; in [10], > 100 µM.
On to `CC(NC(NC(C)C12CC3CC(CC(C3)C1)C2)=C(C(Cl)=C(Cl)Cl)[N+](=O)[O-])C12CC3CC(CC(C3)C1)C2` (stereo not given), for which the TGI in assay [1] was 62.9 µM; in [2], > 100 µM; in assay [3] it was 18.1 µM; in assay [4], > 100 µM; in [5], > 100 µM; in assay [6], > 75.5 µM. Also, the TGI was > 100 µM in [7], > 58.7 µM in assay [8], 23.2 µM in [9] and 17.3 µM in assay [10].
Consider `Cc1ccc(-c2cc(-c3c(C)nn(C)c(=O)c3N)[nH]n2)cc1`, for which the TGI in assay [1], in [2], in [3], in assay [4], in assay [5] and in assay [6] was > 100 µM each time. Also, the TGI in assay [7], in assay [8], in assay [9] and in assay [10] was > 100 µM in each case.
`COc1ccc2c(CCNS(=O)(=O)c3ccccc3)c(C(C)=O)[nH]c2c1`: the TGI in [1], in [2], in [3], in [4], in assay [5] and in assay [6] was > 100 µM each time. The TGI in assay [7], in assay [8], in assay [9] and in assay [10] was > 100 µM throughout.
With `CN(C)c1ccc(C(=NN)c2ccc(N(C)C)cc2)cc1`, the TGI in assay [1] is > 32.7 µM; in assay [2], > 21.8 µM; in [3], > 21.8 µM; in [4] it was 24.4 µM; in [5], > 51 µM; in assay [6], > 100 µM. Moreover, the TGI in [7] is > 81.7 µM; in assay [8], > 100 µM; in assay [9] it was > 100 µM; in assay [10], > 54.4 µM.
For `N#CCCN(CCC#N)c1ccc(C(N=Nc2ccc(Cl)cc2)=Nc2ccc(F)cc2)cc1`, the TGI in assay [1], in assay [2], in [3], in assay [4], in assay [5] and in assay [6] was > 100 µM throughout. Also, the TGI in assay [7], in [8], in assay [9] and in assay [10] was > 100 µM in each case.

(Values after PubChem BioAssay (NCI).)
